Entries after “also recorded” stand apart in the source; their conditions may differ.
These substances were tested on panel of up to 42 human chemokines (assay: Phage-display next generation sequencing screen of overlapping hexadecapeptide libraries, chemokines displayed on streptavidin beads). Conditions: log2E greater than 5, chemokines named by first part of UniProt Entry Name, peptides binding complement C5a (control) excluded.
Format: binding
Description: FIG. 1. Exemplar results from phage display screens. Phage-display libraries were constructed and analysed as described in (McLaughlin, 2013) (Tonikian, 2007). […] FIG. 1A, CC chemokines against evasin A library. FIG. 1B, CXC chemokines against the evasin B library. FIG. 1C, CXC and CX3C chemokines against the viral chemokine binding protein library. FIG. 1D, CXC chemokines against the chemokine library. […] Identified hexadecapeptides were mapped to the position in the originating protein (x-axis) and to fold enrichment (log 2 E, left y-axis). Regions of interest (ROI) were defined where the cumulative residue log 2 E, (clog 2 E:r, right y-axis) exceeds the 95% upper confidence interval of the median clog 2 E:r for the entire protein (indicated as a horizontal dotted line in each panel). Proteins are referred to by their UniProt ID.
Hexadecapeptides were identified using a phage-display next generation sequencing approach (McLaughlin, 2013). Libraries containing a total of 55662 overlapping peptides (from the tick chemokine binding proteins shown in Tables 3A and 3B, the viral chemokine binding proteins shown in Table 3C, the human chemokines shown in Table 3 E, and the human/viral chemokine receptors and other chemokine-binding proteins shown in Table 3D) were first constructed, and then screened against a panel of up to 42 human chemokines, as shown in Table 3F.

Row | Substance | Chemokines Bound
1 | CR9111 (IIFSYVVVFLVAWLPY) | CCL20, CCL22,; also recorded: CCL28, CXL11,; also recorded: CXL13
2 | CR9113 (IIFSYVVVFLVSWLPY) | CCL17, CCL20, and CCL22, CCL28, and X3CL1, CXL10, and CXL11, SDF1, and CXL13, CXL14, and IL8
3 | CR9141 (IIIWALAILASMPGLY) | CCL20, CCL28,; also recorded: CXL11, SDF1
4 | CR9192 (IISLVVWGLSVIISSS) | CCL18, CXL10, and CXL13, CXL14, and IL8
5 | CR9218 (IITSVLAWVTAILATL) | CCL17, CCL18, and CXL11, CXL14, and IL8
6 | CR9282 (ILAFFAAWLPYYIGIS) | CCL11, CCL18,; also recorded: X3CL1, CXL10,; also recorded: CXL11, CXL13
7 | CR9284 (ILAFFASWLPYYIGIS) | CCL17, CCL18,; also recorded: CCL25
8 | CR9291 (ILALVGNTLALWLFIR) | CCL2, CCL22,; also recorded: CCL25, IL8
9 | CR9432 (ILMFLSDFSFIFSSWA) | CCL1, CXL10,; also recorded: CXL11, SDF1,; also recorded: CXL14, IL8
10 | CR9515: chemokine binding peptide of Table 5A used in FIG. 5 combinations (ILYQFELFGFTLIFFK) | CCL18, CCL19,; also recorded: CXL10, CXL14
11 | CR9587 (IMYSIIAFVGLLGNGL) | CCL17, CCL18,; also recorded: CCL20, CXL14
12 | CR9887 (ISLFAGVSFLINLSMD) | CCL17, CCL18,; also recorded: CCL25
13 | CR9889 (ISLLAEVLMFLFPNII) | CCL17, CCL18,; also recorded: CCL20, CCL25,; also recorded: CCL28, CXL13
14 | CR9948 (ISVAWHWVFGSFLSKM) | CCL17, CCL18, and CCL20, CCL22, and CCL25, X3CL1, and CXL11, CXL14, and IL8

Same assay, conditions: log2E greater than 5, chemokines named by first part of UniProt entry name, C5a (control) binders excluded

Row | Substance | Chemokines Bound
15 | CR10008 (ITLFASDFVLMWAVFF) | CCL1, CCL22,; also recorded: CXL10, CXL11
16 | CR10175 (IVTIIITFFLSWSPYH) | CCL1, CCL17,; also recorded: CCL18, CCL20,; also recorded: CCL22, CCL25,; also recorded: CCL28, X3CL1,; also recorded: CXL10, CXL11,; also recorded: CXL14
17 | CR10275 (IYLLNLAISDLFFLLT) | CCL17, CCL18,; also recorded: CCL25, CXL10,; also recorded: CXL13
18 | CR10279 (IYLLNLAISNLLFLVT) | CCL28, SDF1,; also recorded: CXL13, IL8
19 | CR10681 (KIIFSYVVVFLVAWLP) | CCL25, CCL28, and SDF1
20 | CR10825 (KLIFAIVVAYFLSWGP) | CCL17, CCL28,; also recorded: CXL14
21 | CR11295 (KVLWALQYIGLGFFAA) | CCL17, CCL18,; also recorded: CCL2, CXL10,; also recorded: SDF1, CXL14
22 | CR11478 (LAFIYVLMFLANAIGN) | CCL1, CCL20,; also recorded: CXL11, SDF1,; also recorded: CXL13, CXL14
23 | CR11556 (LAKLEAFFLNLSIYWS) | CCL18, CCL2, and CCL25, CCL28, and CCL8, X3CL1, and CXL10, CXL11, and SDF1, CXL13, and IL8
24 | CR11604 (LALSISLLAEVLMFLF) | CCL17, CCL18,; also recorded: CCL20, CCL25,; also recorded: CXL10, CXL13,; also recorded: CXL14, IL8
25 | CR11719 (LATFKILIAIVWGVMP) | CCL1, CCL18,; also recorded: CCL20, CCL22,; also recorded: CCL25, CCL28,; also recorded: CXL10, SDF1
26 | CR11720 (LATFKILICIVWGVMP) | CCL17, CCL18,; also recorded: CCL19, CCL20,; also recorded: CCL25, CXL10,; also recorded: CXL14
27 | CR11776 (LAVKIVFSFIWGVLPT) | CCL17, CCL18,; also recorded: CCL19, CCL20,; also recorded: CCL22, CCL25,; also recorded: CCL8, X3CL1,; also recorded: CXL10, CXL11,; also recorded: SDF1, CXL13,; also recorded: CXL14, IL8
28 | CR11907: chemokine binding peptide of Table 5A used in FIG. 5 combinations (LDFILALVGNTLALWL) | CCL11, CCL18, and CCL2
29 | CR12037 (LENMLFASFYLLDFIL) | CCL22, CXL10,; also recorded: CXL11, SDF1,; also recorded: CXL13, IL8
30 | CR12163 (LFIGIKIVYAFLWGIF) | CCL18, CCL19,; also recorded: CCL2, CCL25,; also recorded: CCL28, X3CL1,; also recorded: CXL10, SDF1,; also recorded: CXL13, CXL14
31 | CR12240 (LFMFVLSVLGNLTVVS) | CCL17, CCL18,; also recorded: CCL19, CCL25,; also recorded: CCL28, CXL10,; also recorded: CXL11, SDF1
32 | CR12277 (LFSFNRFFCQLVYFIY) | CCL18, CCL25,; also recorded: X3CL1, CXL10
33 | CR12308 (LFTLYVSTLDFCIVFI) | CCL20, CCL22, and CCL28, CXL10, and SDF1
34 | CR12330 (LFVMLFSYGFTLRTLF) | CCL17, CCL18, and CCL20, CCL22, and CCL28, CXL14, and IL8
35 | CR12432 (LGIILFSYVEILRTLF) | CCL17, CCL18, and CXL10, CXL11, and IL8
36 | CR12439 (LGIMLFAYSMIIRTLQ) | CCL17, CCL18,; also recorded: CCL20, CCL25

Row | Substance | Chemokines Bound
37 | CR12569 (LGVWLMAIVGTFLNVL) | CCL2, X3CL1,; also recorded: CXL10, CXL11
38 | CR12869 (LIWVISLLVSLPQIIY) | CCL17, CCL18, and X3CL1, CXL14, and IL8
39 | CR12872 (LIYLFLLLWEDTQGWG) | CCL1, CCL18, and CCL19, CCL2, and CCL20, CCL25, and CXL10, SDF1, and IL8
40 | CR13108 (LLFFVFSFPYHVLNLL) | CCL17, CCL18,; also recorded: CXL10, CXL11,; also recorded: CXL14, IL8
41 | CR13203 (LLIMLFSYGFTLRTLF) | CCL18, CCL22, and CCL28, X3CL1, and SDF1
42 | CR13324 (LLMLGLELLFGFFIPL) | CCL1, CCL11,; also recorded: CCL17, CCL18,; also recorded: CCL2, CCL20,; also recorded: CCL22, CCL28,; also recorded: CXL10, CXL11,; also recorded: SDF1, CXL14
43 | CR13391 (LLQALYSAVVPLIYSC) | CCL1, CCL18,; also recorded: CXL14
44 | CR13458 (LLSVLFTLYVSTLDFS) | CCL18, CCL2, and CCL20, CXL10, and CXL11, SDF1, and CXL13, CXL14, and IL8
45 | CR13507 (LLTWLAGLIFSVPAAV) | CCL1, CCL11,; also recorded: CCL17, CCL18,; also recorded: CCL19, CCL2,; also recorded: CCL20, CCL22,; also recorded: CCL25, CCL28,; also recorded: X3CL1, CXL10,; also recorded: CXL11, SDF1,; also recorded: CXL14, IL8
46 | CR13605 (LMFMIFAYTFIVKTLV) | CCL17, CCL18,; also recorded: CCL20, CCL22,; also recorded: CXL10
47 | CR13634 (LMLVFSFVSMLASLAH) | CCL19, CCL28,; also recorded: CXL13, CXL14
48 | CR13966 (LPTMVFSFFYVIFCKA) | CCL20, CCL25,; also recorded: SDF1, CXL14
49 | CR13967 (LPTMVFSFFYVIFSKA) | CCL1, CCL17,; also recorded: CCL18, CCL19,; also recorded: CCL20, CCL28,; also recorded: CXL10
50 | CR14086 (LQTVITFALYVGQFLA) | CCL15, CCL2,; also recorded: CCL28, X3CL1
51 | CR14316 (LSISLLAEVLMFLFPN) | CCL17, CCL18,; also recorded: CCL19, CCL2,; also recorded: CCL20, CCL22,; also recorded: CCL25, X3CL1,; also recorded: CXL14
52 | CR14365 (LSLSISLLAEVLMFLF) | CCL11, CCL19,; also recorded: CCL28, SDF1,; also recorded: CXL13, IL8
53 | CR14548 (LTGFLFYLNMYASIYF) | CCL18, CCL19, and CCL22, CCL28, and CXL10, CXL11, and SDF1, CXL13, and IL8
54 | CR14585 (LTLKVILGFFLPFVVM) | CCL17, CCL18,; also recorded: CCL19, CCL20,; also recorded: CXL14
55 | CR14752 (LVFIFGFVGNMLVVLI) | CCL17, CCL25,; also recorded: CXL10
56 | CR14765 (LVFLLSLVGNSLVLWV) | CCL2, CCL28,; also recorded: CXL10, IL8
57 | CR14780 (LVFVIGLVGNILVVLV) | CCL17, CCL18,; also recorded: CCL19, CCL20,; also recorded: CCL22, CCL25,; also recorded: CCL28, X3CL1,; also recorded: CXL10, CXL14
